Experiment [1] concerns the target EGFR Del19/C797S (Homo sapiens, UniProt P00533, C797S/DEL746-750). The experiment in a line: Biochemical EGFR kinase inhibition assay (Lance Ultra TR-FRET), double mutant del19/C797S. The procedure, abridged: (§1)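 Step 1: compound in kinase buffer, 0.003–10 μM. Step 2: kinase reaction 1 h at room temperature. Step 4: TR-FRET read at 615/665 nm; IC50 calculated.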
A general note: Time-resolved FRET reads energy transfer from a long-lived donor to a nearby acceptor.

Experiment [2] has as its target EGFR L858R/C797S (Homo sapiens, UniProt P00533, C797S/L858R). The experiment in a line: Biochemical EGFR kinase inhibition assay (Lance Ultra TR-FRET), double mutant L858R/C797S. The method, boiled down:
as §1

The target of experiment [3] is EGFR Del19/T790M/C797S (Homo sapiens, UniProt P00533, C797S/DEL746-750/T790M). The experiment in a line: Biochemical EGFR kinase inhibition assay (Lance Ultra TR-FRET), triple mutant del19/T790M/C797S. The method, boiled down:
as §1

For experiment [4], the target named is EGFR wildtype (WT) (Homo sapiens, UniProt P00533). The experiment is described as follows: Biochemical EGFR kinase inhibition assay (Lance Ultra TR-FRET), wildtype. The method, boiled down: as §1
Experiment [5] has as its target EGFR L858R/T790M/C797S (Homo sapiens, UniProt P00533, C797S/L858R/T790M). The experiment is described as follows: Biochemical EGFR kinase inhibition assay (Lance Ultra TR-FRET), triple mutant L858R/T790M/C797S. The method, boiled down:
as §1

The mark [6] stands for this setting: IC50 Del19/C797S (nM), 100 μM ATP.
Setting [7] is: Km ATP, read-out: IC50 Del19/C797S (nM) Km ATP.
Where [8] appears, read: IC50 L858R/C797S (nM), 100 μM ATP.
[9] abbreviates: Km ATP, read-out: IC50 L858R/C797S (nM) Km ATP.
[10] abbreviates: IC50 Del19/T790M/C797S (nM), 100 μM ATP.
Setting [11] is: Km ATP, read-out: IC50 Del19/T790M/C797S (nM) Km ATP.
Setting [12] is: Km ATP, read-out: IC50 WT (nM) Km ATP.
Setting [13] is: IC50 L858R/T790M/C797S (nM), 100 μM ATP.
Setting [14] is: Km ATP, read-out: IC50 L858R/T790M/C797S (nM) Km ATP.

Molecules are shown by their SMILES. Read-outs that look alike come from different tables or passages of the source.

Chain of EGFR Del19/T790M/C797S (P00533 with tags, fused parts or gaps DEL746-750/T790M/C797S): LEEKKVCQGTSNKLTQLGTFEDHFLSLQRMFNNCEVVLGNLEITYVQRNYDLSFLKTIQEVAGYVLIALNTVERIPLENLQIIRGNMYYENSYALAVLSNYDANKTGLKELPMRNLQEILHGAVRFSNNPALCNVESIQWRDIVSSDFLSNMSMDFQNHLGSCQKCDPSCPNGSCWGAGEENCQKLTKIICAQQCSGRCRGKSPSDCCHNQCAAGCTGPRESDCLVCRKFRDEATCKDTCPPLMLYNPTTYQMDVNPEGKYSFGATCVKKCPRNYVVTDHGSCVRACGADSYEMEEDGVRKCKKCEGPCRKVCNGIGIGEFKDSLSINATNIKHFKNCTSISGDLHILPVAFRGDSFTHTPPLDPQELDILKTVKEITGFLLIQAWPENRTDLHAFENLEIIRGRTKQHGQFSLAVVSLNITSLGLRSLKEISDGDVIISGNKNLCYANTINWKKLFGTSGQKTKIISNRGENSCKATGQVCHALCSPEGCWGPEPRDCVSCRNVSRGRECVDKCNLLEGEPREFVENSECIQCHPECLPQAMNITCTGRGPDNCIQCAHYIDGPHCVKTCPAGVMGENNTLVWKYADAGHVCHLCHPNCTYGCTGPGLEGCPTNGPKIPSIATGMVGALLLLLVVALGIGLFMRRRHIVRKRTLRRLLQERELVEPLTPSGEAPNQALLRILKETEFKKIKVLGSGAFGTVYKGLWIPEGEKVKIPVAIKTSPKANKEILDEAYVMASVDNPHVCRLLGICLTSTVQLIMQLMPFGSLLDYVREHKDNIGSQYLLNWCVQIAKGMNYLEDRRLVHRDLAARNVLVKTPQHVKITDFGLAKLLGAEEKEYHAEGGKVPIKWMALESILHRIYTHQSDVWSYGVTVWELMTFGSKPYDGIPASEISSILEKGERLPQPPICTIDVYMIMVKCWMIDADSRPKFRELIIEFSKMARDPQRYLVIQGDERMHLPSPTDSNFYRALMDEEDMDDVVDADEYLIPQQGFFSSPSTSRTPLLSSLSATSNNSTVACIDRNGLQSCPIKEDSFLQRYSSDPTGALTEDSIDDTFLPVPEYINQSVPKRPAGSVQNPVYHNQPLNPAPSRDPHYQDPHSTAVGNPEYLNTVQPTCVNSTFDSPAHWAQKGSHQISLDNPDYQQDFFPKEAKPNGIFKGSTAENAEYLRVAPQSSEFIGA
Chain of EGFR Del19/C797S (P00533 with tags, fused parts or gaps DEL746-750/C797S): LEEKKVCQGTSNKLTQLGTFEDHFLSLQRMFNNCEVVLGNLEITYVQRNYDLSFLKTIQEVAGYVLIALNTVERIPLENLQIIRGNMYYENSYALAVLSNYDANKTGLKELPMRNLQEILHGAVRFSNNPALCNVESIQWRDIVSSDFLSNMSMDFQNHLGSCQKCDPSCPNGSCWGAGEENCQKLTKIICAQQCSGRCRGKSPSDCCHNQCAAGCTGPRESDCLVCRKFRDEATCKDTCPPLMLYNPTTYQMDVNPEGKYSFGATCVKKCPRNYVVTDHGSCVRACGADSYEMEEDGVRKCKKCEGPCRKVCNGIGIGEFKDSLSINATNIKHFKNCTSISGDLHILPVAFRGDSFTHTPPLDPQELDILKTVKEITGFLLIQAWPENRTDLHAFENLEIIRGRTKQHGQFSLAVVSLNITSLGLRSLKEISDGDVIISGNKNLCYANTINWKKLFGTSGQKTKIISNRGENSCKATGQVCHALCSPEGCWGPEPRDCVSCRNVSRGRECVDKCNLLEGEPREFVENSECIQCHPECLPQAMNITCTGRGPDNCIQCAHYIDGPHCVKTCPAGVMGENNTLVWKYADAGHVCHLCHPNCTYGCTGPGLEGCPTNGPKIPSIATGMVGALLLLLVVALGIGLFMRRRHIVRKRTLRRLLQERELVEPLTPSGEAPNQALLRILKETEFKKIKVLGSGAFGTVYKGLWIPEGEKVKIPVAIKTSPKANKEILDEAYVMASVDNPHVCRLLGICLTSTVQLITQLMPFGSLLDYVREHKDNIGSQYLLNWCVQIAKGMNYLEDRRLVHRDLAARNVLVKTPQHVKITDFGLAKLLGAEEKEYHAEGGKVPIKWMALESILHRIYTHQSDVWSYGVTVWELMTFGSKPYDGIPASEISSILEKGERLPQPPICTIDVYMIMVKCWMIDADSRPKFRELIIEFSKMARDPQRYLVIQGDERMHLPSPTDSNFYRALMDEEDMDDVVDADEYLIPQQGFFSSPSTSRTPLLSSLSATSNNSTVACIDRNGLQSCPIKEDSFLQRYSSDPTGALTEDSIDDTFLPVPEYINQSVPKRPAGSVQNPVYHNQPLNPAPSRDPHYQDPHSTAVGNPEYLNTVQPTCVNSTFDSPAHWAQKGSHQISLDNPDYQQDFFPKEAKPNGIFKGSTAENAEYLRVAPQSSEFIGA
Chain of EGFR L858R/C797S (P00533 25-1210 C797S/L858R): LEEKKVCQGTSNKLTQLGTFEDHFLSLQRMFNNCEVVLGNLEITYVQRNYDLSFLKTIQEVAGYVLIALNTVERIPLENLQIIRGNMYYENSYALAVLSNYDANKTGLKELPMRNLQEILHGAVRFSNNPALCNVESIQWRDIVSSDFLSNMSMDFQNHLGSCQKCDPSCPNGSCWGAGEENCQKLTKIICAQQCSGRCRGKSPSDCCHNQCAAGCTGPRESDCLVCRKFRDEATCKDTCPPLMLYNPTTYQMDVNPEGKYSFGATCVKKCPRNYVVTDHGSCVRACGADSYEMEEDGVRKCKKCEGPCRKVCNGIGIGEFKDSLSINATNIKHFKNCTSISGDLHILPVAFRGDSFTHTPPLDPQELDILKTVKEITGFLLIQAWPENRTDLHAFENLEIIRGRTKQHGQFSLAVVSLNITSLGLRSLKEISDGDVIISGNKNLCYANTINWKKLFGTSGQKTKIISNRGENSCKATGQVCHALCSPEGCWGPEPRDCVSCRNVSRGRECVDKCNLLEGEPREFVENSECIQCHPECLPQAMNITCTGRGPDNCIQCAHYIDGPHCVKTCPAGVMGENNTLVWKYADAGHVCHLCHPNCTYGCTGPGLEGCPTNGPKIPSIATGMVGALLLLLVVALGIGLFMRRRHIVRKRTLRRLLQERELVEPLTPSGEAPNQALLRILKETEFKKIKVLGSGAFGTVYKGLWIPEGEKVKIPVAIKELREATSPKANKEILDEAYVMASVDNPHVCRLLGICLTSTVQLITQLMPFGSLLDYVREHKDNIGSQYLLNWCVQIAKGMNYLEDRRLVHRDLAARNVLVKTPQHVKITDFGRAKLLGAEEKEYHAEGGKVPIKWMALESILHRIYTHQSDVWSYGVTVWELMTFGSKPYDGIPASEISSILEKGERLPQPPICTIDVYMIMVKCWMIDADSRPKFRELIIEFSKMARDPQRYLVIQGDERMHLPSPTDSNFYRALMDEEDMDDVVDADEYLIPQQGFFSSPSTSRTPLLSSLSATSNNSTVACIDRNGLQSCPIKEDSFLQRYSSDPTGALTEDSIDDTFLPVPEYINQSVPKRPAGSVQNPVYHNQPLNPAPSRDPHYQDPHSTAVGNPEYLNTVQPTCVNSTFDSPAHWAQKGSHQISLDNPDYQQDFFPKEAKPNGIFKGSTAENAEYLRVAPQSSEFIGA
Chain of EGFR wildtype (WT) (P00533 25-1210): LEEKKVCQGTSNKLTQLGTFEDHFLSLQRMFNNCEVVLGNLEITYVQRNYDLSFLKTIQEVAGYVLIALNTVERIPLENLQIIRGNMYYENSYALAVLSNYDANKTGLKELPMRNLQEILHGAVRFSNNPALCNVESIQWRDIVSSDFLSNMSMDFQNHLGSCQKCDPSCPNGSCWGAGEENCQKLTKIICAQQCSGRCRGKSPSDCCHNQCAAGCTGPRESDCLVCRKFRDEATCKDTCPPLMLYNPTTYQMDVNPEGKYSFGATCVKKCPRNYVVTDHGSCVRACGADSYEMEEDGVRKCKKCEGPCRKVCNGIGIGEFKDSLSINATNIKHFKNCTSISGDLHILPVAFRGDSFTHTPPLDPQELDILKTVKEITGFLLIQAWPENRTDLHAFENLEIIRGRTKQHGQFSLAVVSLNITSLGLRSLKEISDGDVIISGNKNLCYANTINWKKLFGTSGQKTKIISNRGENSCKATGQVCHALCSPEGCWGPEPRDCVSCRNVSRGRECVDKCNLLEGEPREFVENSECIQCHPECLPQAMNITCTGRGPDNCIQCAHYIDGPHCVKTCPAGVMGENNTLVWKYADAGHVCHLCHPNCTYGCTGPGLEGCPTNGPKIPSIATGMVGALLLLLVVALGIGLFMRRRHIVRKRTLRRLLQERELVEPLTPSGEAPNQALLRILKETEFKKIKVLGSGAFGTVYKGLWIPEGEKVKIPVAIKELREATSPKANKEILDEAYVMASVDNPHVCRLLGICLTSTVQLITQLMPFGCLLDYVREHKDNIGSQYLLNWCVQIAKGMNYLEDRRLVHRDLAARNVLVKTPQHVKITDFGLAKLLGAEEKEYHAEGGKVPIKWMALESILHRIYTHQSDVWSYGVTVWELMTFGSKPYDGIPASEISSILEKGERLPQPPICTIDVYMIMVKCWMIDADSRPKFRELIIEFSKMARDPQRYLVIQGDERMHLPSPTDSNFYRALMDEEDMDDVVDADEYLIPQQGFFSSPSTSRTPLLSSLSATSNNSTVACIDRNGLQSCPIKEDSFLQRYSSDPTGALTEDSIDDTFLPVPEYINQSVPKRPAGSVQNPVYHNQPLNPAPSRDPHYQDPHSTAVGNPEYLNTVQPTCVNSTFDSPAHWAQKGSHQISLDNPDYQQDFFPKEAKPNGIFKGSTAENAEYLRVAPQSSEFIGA

As to `CC1(O)CC2(CCN(c3cc(Nc4ccnc(-c5cnn(S(=O)(=O)C6CC6)c5)n4)ncc3C#Cc3cnn(C(F)(F)F)c3)CC2)C1` [Example 104, 7-(2-((2-(1-(Cyclopropylsulfonyl)-1H-pyrazol-4-yl)pyrimidin-4-yl)amino)-5-((1-(trifluoromethyl)-1H-pyrazol-4-yl)ethynyl)pyridin-4-yl)-2-methyl-7-azaspiro[3.5]nonan-2-ol], the IC50 in experiment [1] (setting [6]) stood at 12.4 nM; in experiment [1] (setting [7]), 9.7 nM; in experiment [2] (setting [8]) it was 119 nM; in experiment [2] (setting [9]) it was 32.3 nM; in experiment [3] (setting [10]), 4.1 nM; in experiment [3] (setting [11]) it was 3.1 nM. The IC50 in experiment [4] (IC50 WT (nM), 100 μM ATP) is greater than 10000 nM; in experiment [4] (setting [12]), 89.4 nM; in experiment [5] (setting [13]), 3 nM; in experiment [5] (setting [14]), 1.1 nM.

For `CN1CCN(c2cc(Nc3ccnc(-c4cnn(S(=O)(=O)C5CC5)c4)n3)ncc2C#Cc2cnn(C)c2)CC1` [Example 1, 2-(1-(Cyclopropylsulfonyl)-1H-pyrazol-4-yl)-N-(5-((1-methyl-1H-pyrazol-4-yl)ethynyl)-4-(4-methylpiperazin-1-yl)pyridin-2-yl)pyrimidin-4-amine], the IC50 in experiment [1] (setting [7]) was found to be 71.3 nM; in experiment [2] (setting [9]), 34.6 nM; in experiment [3] (setting [11]), 1.3 nM; in experiment [4] (setting [12]), 230 nM; in experiment [5] (setting [14]), 5.4 nM.

`Cn1cc(C#Cc2cnc(Nc3ccnc(-c4cnn(S(=O)(=O)C5CC5)c4)n3)cc2N2CCC(CO)CC2)c(C(F)(F)F)n1` [Example 90, (1-(2-((2-(1-(Cyclopropylsulfonyl)-1H-pyrazol-4-yl)pyrimidin-4-yl)amino)-5-((1-methyl-3-(trifluoromethyl)-1H-pyrazol-4-yl)ethynyl)pyridin-4-yl)piperidin-4-yl)methanol]: the IC50 in experiment [1] (setting [6]) was 28.5 nM; in experiment [2] (setting [8]), 37.2 nM; in experiment [3] (setting [10]) it was 3.6 nM; in experiment [4] (IC50 WT (nM), 100 μM ATP), greater than 10000 nM; in experiment [5] (setting [13]), 11.8 nM.

With `CN1CCC2(CC1)CCN(c1cc(Nc3ccnc(-c4cnn(S(=O)(=O)C5CC5)c4)n3)ncc1C#Cc1cnn(CC3CC3)c1)CC2` [Example 320, N-(5-((1-(Cyclopropylmethyl)-1H-pyrazol-4-yl)ethynyl)-4-(9-methyl-3,9-diazaspiro[5.5]undecan-3-yl)pyridin-2-yl)-2-(1-(cyclopropylsulfonyl)-1H-pyrazol-4-yl)pyrimidin-4-amine], the IC50 in experiment [1] (setting [6]) was found to be 10.5 nM; in experiment [2] (setting [8]), 44 nM; in experiment [3] (setting [10]), 1 nM; in experiment [4] (IC50 WT (nM), 100 μM ATP) it was 5670 nM; in experiment [5] (setting [13]) it was 0.8 nM.

Regarding `O=S(=O)(C1CC1)n1cc(-c2nccc(Nc3cc(N[C@@H]4CCC[C@H](O)C4)c(C#Cc4ccc(CN5CCOCC5)cc4)cn3)n2)cn1` [Example 160, (1S,3R)-3-((2-((2-(1-(Cyclopropylsulfonyl)-1H-pyrazol-4-yl)pyrimidin-4-yl)amino)-5-((4-(morpholinomethyl)phenyl)ethynyl)pyridin-4-yl)amino)cyclohexan-1-ol], the IC50 amounted to 4.1 nM in experiment [1] (ATP at Km, read-out: IC50 Del19/C797S (nM), Km ATP); 10.1 nM in experiment [1] (setting [6]); 3.8 nM in experiment [2] (ATP at Km, read-out: IC50 L858R/C797S (nM), Km ATP); 65.6 nM in experiment [2] (setting [8]); 5.7 nM in experiment [3] (ATP at Km, read-out: IC50 Del19/T790M/C797S (nM), Km ATP); 7.3 nM in experiment [3] (setting [10]). Moreover, the IC50 is 64.8 nM in experiment [4] (ATP at Km, read-out: IC50 WT (nM), Km ATP); greater than 10000 nM in experiment [4] (IC50 WT (nM), 100 μM ATP); 2.5 nM in experiment [5] (ATP at Km, read-out: IC50 L858R/T790M/C797S (nM), Km ATP); 6.2 nM in experiment [5] (setting [13]).

On to `Cn1ccc(C#Cc2cnc(Nc3ccnc(-c4cnn(S(=O)(=O)C5CC5)c4)n3)cc2N2CCC(NCCF)CC2)n1` [Example 141, 2-(1-(Cyclopropylsulfonyl)-1H-pyrazol-4-yl)-N-(4-(4-((2-fluoroethyl)amino)piperidin-1-yl)-5-((1-methyl-1H-pyrazol-3-yl)ethynyl)pyridin-2-yl)pyrimidin-4-amine], for which the IC50 in experiment [1] (setting [6]) was found to be 49.1 nM; in experiment [1] (setting [7]), 48.7 nM; in experiment [2] (setting [8]), 1900 nM; in experiment [2] (setting [9]) it was 13.7 nM; in experiment [3] (setting [10]), 0.9 nM; in experiment [3] (setting [11]), 0.7 nM. For the same molecule, the IC50 was greater than 10000 nM in experiment [4] (IC50 WT (nM), 100 μM ATP); 256 nM in experiment [4] (setting [12]); 3.4 nM in experiment [5] (setting [13]); 0.7 nM in experiment [5] (setting [14]).

For the origin of these results see patent US11981658B2, “Substituted aminopyridine compounds as EGFR inhibitors” (YUHAN CORPORATION, priority 2021, dated 2024).
